Values of other authors, collected in patent US11260068B2, “Long-circulating liposome modified with c(RGD-ACP-K)” (BEIJING GREATSUN BIO-PHARM. TECH. CO., LTD, priority 2017, dated 2022).
“Also recorded” adds a separate entry of the source. Starred links: 1 amine or outer side, 2 acyl side, 3 side chain; linkers in the order of their positions; H or OH if unused. Non-standard residues stand in square brackets, D forms with d. Residues, ends and D or L forms follow the SMILES beside them. X1 = O=C(C1CCC(N[*:1])C1)[*:2]

Target: T1, integrin αvβ3 on the surface of U87MG cells (Homo sapiens, UniProt P05106+P06756)
T1 construct: U87MG glioblastoma cells expressing integrin αvβ3; endogenous in cells; host or cells: U87MG glioblastoma cells
Conditions: reference c(RGDyK)

T1 sequence (P06756 31-889 limits assumed): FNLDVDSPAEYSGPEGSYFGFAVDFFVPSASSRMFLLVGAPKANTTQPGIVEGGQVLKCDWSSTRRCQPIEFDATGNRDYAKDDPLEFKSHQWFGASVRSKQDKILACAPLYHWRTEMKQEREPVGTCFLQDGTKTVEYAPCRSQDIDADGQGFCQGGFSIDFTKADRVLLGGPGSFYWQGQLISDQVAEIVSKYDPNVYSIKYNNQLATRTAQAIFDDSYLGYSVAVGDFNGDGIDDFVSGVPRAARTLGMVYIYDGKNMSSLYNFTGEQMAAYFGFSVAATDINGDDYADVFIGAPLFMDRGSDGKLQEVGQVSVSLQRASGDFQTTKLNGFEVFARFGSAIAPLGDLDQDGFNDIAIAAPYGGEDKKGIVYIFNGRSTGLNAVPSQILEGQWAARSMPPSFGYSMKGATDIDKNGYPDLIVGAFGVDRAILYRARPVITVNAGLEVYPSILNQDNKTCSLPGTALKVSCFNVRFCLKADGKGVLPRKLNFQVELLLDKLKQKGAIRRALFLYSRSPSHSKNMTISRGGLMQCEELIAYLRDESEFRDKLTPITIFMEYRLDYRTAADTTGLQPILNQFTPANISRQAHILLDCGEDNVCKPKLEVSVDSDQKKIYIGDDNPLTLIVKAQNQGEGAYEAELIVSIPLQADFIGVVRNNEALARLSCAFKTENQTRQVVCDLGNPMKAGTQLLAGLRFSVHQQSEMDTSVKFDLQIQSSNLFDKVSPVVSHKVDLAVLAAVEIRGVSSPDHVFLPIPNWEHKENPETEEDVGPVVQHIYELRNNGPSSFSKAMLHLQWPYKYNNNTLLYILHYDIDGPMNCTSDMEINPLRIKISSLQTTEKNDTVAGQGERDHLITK
T1 sequence (P06756 891-1048 partner limits assumed): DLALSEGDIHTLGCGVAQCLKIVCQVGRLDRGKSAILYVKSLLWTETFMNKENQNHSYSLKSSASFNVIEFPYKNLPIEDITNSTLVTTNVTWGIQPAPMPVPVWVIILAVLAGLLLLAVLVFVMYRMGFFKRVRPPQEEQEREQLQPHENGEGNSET
T1 sequence (P05106 27-788): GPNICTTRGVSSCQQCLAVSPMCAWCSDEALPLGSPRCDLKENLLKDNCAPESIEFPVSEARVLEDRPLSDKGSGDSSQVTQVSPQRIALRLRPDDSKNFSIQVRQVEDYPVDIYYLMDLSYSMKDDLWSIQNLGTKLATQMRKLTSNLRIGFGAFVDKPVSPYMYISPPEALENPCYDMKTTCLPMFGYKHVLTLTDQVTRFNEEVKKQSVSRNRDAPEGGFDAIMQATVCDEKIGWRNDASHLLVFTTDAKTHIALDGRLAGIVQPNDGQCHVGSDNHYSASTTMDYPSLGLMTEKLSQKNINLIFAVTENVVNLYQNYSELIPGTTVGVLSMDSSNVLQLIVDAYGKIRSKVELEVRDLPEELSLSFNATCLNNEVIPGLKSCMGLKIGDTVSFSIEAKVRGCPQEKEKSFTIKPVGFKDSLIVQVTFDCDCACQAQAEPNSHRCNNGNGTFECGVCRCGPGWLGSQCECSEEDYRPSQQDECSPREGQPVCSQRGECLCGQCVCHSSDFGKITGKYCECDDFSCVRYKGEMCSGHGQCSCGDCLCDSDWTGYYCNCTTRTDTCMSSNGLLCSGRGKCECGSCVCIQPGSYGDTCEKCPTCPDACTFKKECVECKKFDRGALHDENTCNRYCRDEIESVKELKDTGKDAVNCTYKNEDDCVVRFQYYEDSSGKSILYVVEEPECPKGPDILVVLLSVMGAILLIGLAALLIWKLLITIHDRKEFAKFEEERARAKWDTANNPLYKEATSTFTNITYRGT

Molecule | binding to integrin αvβ3 on the surface of U87MG cells
N=C(N)NCCC[C@@H]1NC(=O)[C@H](CCCCN)NC(=O)C2CCC(C2)NC(=O)[C@H](CC(=O)O)NC(=O)CNC1=O (stereo partly drawn) [c(RGD-ACP-K), cyclo[RGD-(1S,3R)-3-aminocyclopentane-1-carboxylic acid]] (cyclo(RGD[X1]K)) | superior to that of the cyclic peptide c(RGDyK); also recorded: significantly higher than that of c(RGD-ACH-K)
cyclic [c(RGD-ACH-K), cyclic [RGD-(1S,3R)-3-aminocyclohexanecarboxylic acid]] | superior to that of the cyclic peptide c(RGDyK)
